# Molecular target: T1, CFTR ΔF508 (Homo sapiens, UniProt P13569, DEL508-508)
# T1 construct: bronchial epithelial cells isolated from CF patients homozygous for the CFTR ΔF508 mutation; McGill University; Asterand; University of North Carolina hAEC-CF; host or cells: primary human bronchial epithelial cells from CF patients homozygous for ΔF508
# Assay: Chronic TECC assay, primary bronchial epithelial cells from CF patients homozygous for CFTR ΔF508
# Format: cell-based
# Conditions: chronic TECC; with co-corrector and potentiator; AUC = full area under the curve upon forskolin stimulation
# Method: The TECC (Tranepithelial Clamp Circuit, EP-design) assay measures the functionality of the cystic fibrosis Transmembrane Conductance regulator (CFTR) by measuring the short circuit current (Isc) generated over the basolateral and apical membrane of lung epithelial cells. In TECC the transepithelial potential PD and transepithelial resistance (Rt) are measured in an open circuit and transformed to Ieq using Ohm's law. 24 Wells can be measured simultaneously allowing a higher throughput compared to Ussing chambers.
# For this purpose, bronchial epithelial cells isolated from CF patients homozygous for the CFTR ΔF508 mutation (hAEC-CF, Epithelix, Geneva, Switzerland; McGill University, Montreal, Qc; Asterand, Detroit, Mich.; University of North Carolina, Chapel Hill, N.C.) are plated on type IV collagen-coated Transwell® supports (Costar).
# For electrophysiological recording of the “chronic” experiments, the human airway epithelia are mounted in the TECC heating plate for electrophysiological measurement and kept at 37° C. The epithelia are bathed in a NaCl-Ringer solution (120 mM NaCl, 25 mM NaHCO3, 1.2 mM CaCl2), 1.2 mM MgCl2, 0.8 mM KH2PO4, 0.8 mM K2HP04, pH 7.4, 5 mM glucose) on both the basolateral and apical sides. Test compounds (corrector, co-corrector, 4-[(2R,4R)-4-({[1-(2,2-difluoro-1,3-benzodioxol-5-yl)cyclopropyl]carbonyl}amino)-7-(difluoromethoxy)-3,4-dihydro-2H-chromen-2-yl]benzoic acid, and potentiator, N-(3-carbamoyl-5,5,7,7-tetramethyl-4,7-dihydro-5H-thieno[2,3-c]pyran-2-yl)-1H-pyrazole-5-carboxamide), are re-added to the recording solution prior to measurement. […] Apical amiloride is used to inhibit the endogenous ENaC currents while forskolin is applied on both apical and basolateral side to stimulate CFTR. Measurements are done during a 20 minute timeframe with recordings every 2 minutes. The increase in Ieq is used as a measure for the increased CFTR activity, EC50 values can be generated by measuring impact of different concentrations of compound on Ieq on primary cells, for this purpose each transwell is treated with a different compound concentration. […] Raw data were normalized to percentage activity values using the equation: 100×(Sample−Negative control)/(Positive control−Negative Control).
# T1 sequence (P13569 with tags, fused parts or gaps DEL508-508): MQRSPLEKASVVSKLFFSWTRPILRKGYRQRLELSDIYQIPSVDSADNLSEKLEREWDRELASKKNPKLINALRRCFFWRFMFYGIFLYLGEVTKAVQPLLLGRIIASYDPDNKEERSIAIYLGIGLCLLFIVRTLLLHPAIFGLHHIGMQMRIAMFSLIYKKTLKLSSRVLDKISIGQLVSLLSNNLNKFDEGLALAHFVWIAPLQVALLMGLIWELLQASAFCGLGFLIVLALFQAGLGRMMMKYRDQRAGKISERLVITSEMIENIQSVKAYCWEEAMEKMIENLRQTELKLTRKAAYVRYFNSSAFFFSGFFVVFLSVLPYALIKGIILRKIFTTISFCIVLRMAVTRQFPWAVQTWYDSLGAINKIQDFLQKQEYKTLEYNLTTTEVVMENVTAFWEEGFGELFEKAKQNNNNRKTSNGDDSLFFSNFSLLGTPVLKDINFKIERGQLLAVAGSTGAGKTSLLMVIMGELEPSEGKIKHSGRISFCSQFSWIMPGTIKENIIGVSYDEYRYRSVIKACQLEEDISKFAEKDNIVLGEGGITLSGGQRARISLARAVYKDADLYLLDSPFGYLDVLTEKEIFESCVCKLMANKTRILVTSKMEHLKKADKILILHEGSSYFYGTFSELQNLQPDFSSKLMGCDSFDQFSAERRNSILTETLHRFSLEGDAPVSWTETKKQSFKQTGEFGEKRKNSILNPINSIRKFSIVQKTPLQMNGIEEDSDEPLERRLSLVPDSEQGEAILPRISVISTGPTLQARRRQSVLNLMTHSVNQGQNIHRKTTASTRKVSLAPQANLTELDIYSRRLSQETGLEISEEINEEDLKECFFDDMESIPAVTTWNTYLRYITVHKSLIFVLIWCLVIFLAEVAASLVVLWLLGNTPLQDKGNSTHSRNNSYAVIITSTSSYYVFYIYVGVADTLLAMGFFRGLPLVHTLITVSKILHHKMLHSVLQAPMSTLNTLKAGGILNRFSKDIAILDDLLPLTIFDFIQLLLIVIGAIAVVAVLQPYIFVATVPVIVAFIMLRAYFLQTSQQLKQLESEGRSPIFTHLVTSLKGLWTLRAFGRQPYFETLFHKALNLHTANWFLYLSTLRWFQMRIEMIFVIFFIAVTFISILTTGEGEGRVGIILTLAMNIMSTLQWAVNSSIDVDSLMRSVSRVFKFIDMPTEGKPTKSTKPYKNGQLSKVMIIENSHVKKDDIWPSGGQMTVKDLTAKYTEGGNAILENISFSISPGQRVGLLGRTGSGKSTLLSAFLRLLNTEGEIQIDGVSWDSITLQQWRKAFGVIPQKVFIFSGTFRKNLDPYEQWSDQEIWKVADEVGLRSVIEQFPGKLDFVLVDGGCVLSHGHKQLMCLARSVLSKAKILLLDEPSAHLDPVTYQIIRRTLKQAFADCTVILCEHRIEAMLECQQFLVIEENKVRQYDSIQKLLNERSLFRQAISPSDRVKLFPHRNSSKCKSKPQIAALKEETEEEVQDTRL
row,SMILES,EC50 [nM]
1,CN(C)S(=O)(=O)NC(=O)c1cc(OCC2CCOCC2)c2c(C3CCC3)nn(-c3ccccc3)c2n1 [compound 334],100
2,CC(C)N1CCN(C2CCN(c3cc(C(=O)NS(=O)(=O)N(C)C)nc4c3c(C3CCC3)nn4-c3ccc(F)cc3)CC2)CC1 [compound 382],100

# Same assay, conditions: read-out: % Activity at 1 μM (AUC**)
row,SMILES,activity at 1 µM [%]
1,"COCC1CCN(c2cc(C(=O)NS(C)(=O)=O)nc3c2c(C2CCC2)nn3-c2ccccc2)CC1 [Compound 185, 3-cyclobutyl-N-(methanesulfonyl)-4-[4-(methoxymethyl)piperidin-1-yl]-1-phenyl-1H-pyrazolo[3,4-b]pyridine-6-carboxamide]",453
2,"CS(=O)(=O)NC(=O)c1cc(N2CCC(N3CCOCC3)CC2)c2c(C3CCC3)nn(-c3ccccc3)c2n1 [Compound 328, 3-cyclobutyl-N-(methanesulfonyl)-4-[4-(morpholin-4-yl)piperidin-1-yl]-1-phenyl-1H-pyrazolo[3,4-b]pyridine-6-carboxamide]",532
3,"CS(=O)(=O)NC(=O)c1cc(N2CCC(CCN3CCOCC3)CC2)c2c(C3CCC3)nn(-c3ccccc3)c2n1 [Compound 331, 3-cyclobutyl-N-(methanesulfonyl)-4-{4-[2-(morpholin-4-yl)ethyl]piperidin-1-yl}-1-phenyl-1H-pyrazolo[3,4-b]pyridine-6-carboxamide]",537
4,"COCC1CCN(c2cc(C(=O)NS(=O)(=O)CCO)nc3c2c(C2CCC2)nn3-c2ccccc2)CC1 [Compound 366, 3-cyclobutyl-N-(2-hydroxyethanesulfonyl)-4-[4-(methoxymethyl)piperidin-1-yl]-1-phenyl-1H-pyrazolo[3,4-b]pyridine-6-carboxamide]",428
5,"COCC1CN(C2CCN(c3cc(C(=O)NS(=O)(=O)N(C)C)nc4c3c(C3CCC3)nn4-c3ccc(F)cc3)CC2)CCO1 (stereo not drawn) [Compound 379, 3-cyclobutyl-N-(dimethylsulfamoyl)-1-(4-fluorophenyl)-4-{4-[2-(methoxymethyl)morpholin-4-yl]piperidin-1-yl}-1H-pyrazolo[3,4-b]pyridine-6-carboxamide]",370
6,"CC(C)Oc1nn(C2CCCCC2)c2nc(C(=O)NS(C)(=O)=O)cc(-c3ccc(C(=O)N4CC5CNCC5C4)cc3)c12 (stereo not drawn) [Compound 631, 1-cyclohexyl-4-[4-(hexahydropyrrolo[3,4-c]pyrrole-2(1H)-carbonyl)phenyl]-N-(methanesulfonyl)-3-[(propan-2-yl)oxy]-1H-pyrazolo[3,4-b]pyridine-6-carboxamide]",157

# Same assay, conditions: read-out: % Activity at 1 μM (Ieq*)
row,SMILES,activity at 1 µM [%]
1,"CS(=O)(=O)NC(=O)c1cc(-c2ccc(N3CCC(C#N)CC3)nc2)c2c(C3CCC3)nn(-c3ccccc3)c2n1 [Compound 71, 4-[6-(4-cyanopiperidin-1-yl)pyridin-3-yl]-3-cyclobutyl-N-(methanesulfonyl)-1-phenyl-H-pyrazolo[3,4-b]pyridine-6-carboxamide]",270

# Same assay, conditions: read-out: % Activity at 3 μM (AUC**)
row,SMILES,activity at 3 µM [%]
1,"CS(=O)(=O)NC(=O)c1cc(N2CCC(N3CCOCC3)CC2)c2c(C3CCC3)nn(-c3ccccc3)c2n1 [Compound 328, 3-cyclobutyl-N-(methanesulfonyl)-4-[4-(morpholin-4-yl)piperidin-1-yl]-1-phenyl-1H-pyrazolo[3,4-b]pyridine-6-carboxamide]",423
2,"CS(=O)(=O)NC(=O)c1cc(N2CCC(N3CCCCC3)CC2)c2c(C3CCC3)nn(-c3ccccc3)c2n1 [Compound 365, 4-([1,4′-bipiperidin]-1′-yl)-3-cyclobutyl-N-(methanesulfonyl)-1-phenyl-1H-pyrazolo[3,4-b]pyridine-6-carboxamide]",522
3,"O=C(NS(=O)(=O)N1CCOCC1)c1cc(N2CCC(CN3CCCC3)CC2)c2c(C3CCC3)nn(-c3ccccc3)c2n1 [Compound 380, 3-cyclobutyl-N-(morpholine-4-sulfonyl)-1-phenyl-4-{4-[(pyrrolidin-1-yl)methyl]piperidin-1-yl}-1H-pyrazolo[3,4-b]pyridine-6-carboxamide]",250
4,"O=C(NS(=O)(=O)N1CCOCC1)c1cc(N2CCC(N3CCOCC3)CC2)c2c(C3CCC3)nn(-c3ccccc3)c2n1 [Compound 383, 3-cyclobutyl-N-(morpholine-4-sulfonyl)-4-[4-(morpholin-4-yl)piperidin-1-yl]-1-phenyl-1H-pyrazolo[3,4-b]pyridine-6-carboxamide]",299
5,"CNS(=O)(=O)NC(=O)c1cc(N2CCC(N3CCOCC3)CC2)c2c(C3CCC3)nn(-c3ccc(F)cc3)c2n1 [Compound 517, 3-cyclobutyl-1-(4-fluorophenyl)-N-(methylsulfamoyl)-4-[4-(morpholin-4-yl)piperidin-1-yl]-H-pyrazolo[3,4-b]pyridine-6-carboxamide]",309
6,"CN(C(=O)c1cc(N2CCC(N3CCOCC3)CC2)c2c(C3CCC3)nn(-c3ccccc3)c2n1)S(C)(=O)=O [Compound 656, 3-cyclobutyl-N-(methanesulfonyl)-N-methyl-4-[4-(morpholin-4-yl)piperidin-1-yl]-1-phenyl-1H-pyrazolo[3,4-b]pyridine-6-carboxamide]",198
7,"COCC1CCN(c2cc(C(=O)N(C)S(C)(=O)=O)nc3c2c(C2CCC2)nn3-c2ccccc2)CC1 [Compound 657, 3-cyclobutyl-N-(methanesulfonyl)-4-[4-(methoxymethyl)piperidin-1-yl]-N-methyl-1-phenyl-1H-pyrazolo[3,4-b]pyridine-6-carboxamide]",358
8,"CCS(=O)(=O)N(C)C(=O)c1cc(N2CCC(N3CCOCC3)CC2)c2c(C3CCC3)nn(-c3ccccc3)c2n1 [Compound 658, 3-cyclobutyl-N-(ethanesulfonyl)-N-methyl-4-[4-(morpholin-4-yl)piperidin-1-yl]-1-phenyl-1H-pyrazolo[3,4-b]pyridine-6-carboxamide]",260

# Molecular target: T2, ΔF508-CFTR (Homo sapiens, UniProt P13569, DEL508-508)
# T2 construct: host or cells: CFBE41o- cells, doxycycline-inducible expression
# T2 sequence (P13569 with tags, fused parts or gaps DEL508-508): as above
# Assay: CFTR cell surface levels using HRP-tagged ΔF508-CFTR expressing CFBE cells, intrinsic corrector capacity
# Format: cell-based
# Set-up: % Activation: concentration or dose not given beside the values
# Conditions: HRP-tagged ΔF508-CFTR expressing CFBE41o- cells; compounds alone (intrinsic corrector capacity); 20 hours at 33° C.
# From the text: Measuring CFTR Cell Surface Levels Using HRP-Tagged ΔF508-CFTR Expressing CFBE Cells
# The HRP-tagged ΔF508-CFTR cell assay measures the expression of CFTR-ΔF508 at the plasma membrane. CFTR-ΔF508 has a folding defect leading to absence of protein at the plasma membrane. This assay is used to evaluate the capacity of compounds to increase the expression of CFTR-ΔF508 at the plasma membrane. […] When HRP-tagged ΔF508-CFTR is present at the plasma membrane, the HRP enzyme activity can be measured. The amount of CFTR-ΔF508 that can be rescued to the plasma membrane is correlated with the amount of functional enzyme that can be measured.
# There are several ways to measure the capacity of compounds to rescue CFTR-ΔF508 to the plasma membrane; either compounds are evaluated on their own and the impact on plasma membrane levels is measured or compounds are evaluated in combination with a co-corrector, i.e. a compound that rescues CFTR-ΔF508 to the plasma membrane but rescue can be enhanced by addition of compounds due to a complementary mode of action.
# Activity of Compounds for their Intrinsic Corrector Capacity:
# On day four, L test compounds diluted in PBS were added to the plates at a final DMSO concentration of 0.1%. All compound plates contained negative controls (DMSO) and positive controls ([…] corrector, 3-[(2R,4R)-4-({[1-(2,2-difluoro-1,3-benzodioxol-5-yl)cyclopropyl]carbonyl}amino)-7-methoxy-3,4-dihydro-2H-chromen-2-yl]benzoic acid). Cell plates were incubated at 33° C., 5% CO2 for 20 hours. […] After incubation for 15 minutes in the dark, chemiluminescence was measured using a plate reader (EnVision®, Perkin Elmer). Raw data were normalized to percentage activity values using the equation: 100×(Sample−Negative control)/(Positive control−Negative Control).
SMILES,% Activation [%],EC50 [nM]
CCS(=O)(=O)NC(=O)c1cc(-c2ccc(OC)cc2)c2c(C)nn(-c3ccccc3)c2n1 [compound 15],151.675,
CCS(=O)(=O)NC(=O)c1cc(-c2cnc(N(C)C)nc2)c2c(C3CN(C(=O)OC)C3)nn(C3CCCCC3)c2n1 [compound 52],,11500
CC(C)c1nn(C2CCCCC2)c2nc(C(=O)NS(C)(=O)=O)cc(-c3ccc(N4CCC(F)(F)C4)nc3)c12 [compound 64],,835
CS(=O)(=O)NC(=O)c1cc(N2CC3(CCOCC3)C2)c2c(C3CCC3)nn(-c3ccccc3)c2n1 [compound 204],,978
Cc1nn(C2CCCCC2)c2nc(C(=O)NS(=O)(=O)C3CC3)cc(-c3ccc(N4CCOCC4)cc3)c12 [compound 239],,99.2
COCCS(=O)(=O)NC(=O)c1cc(-c2ccc(CN3CCOCC3)cc2)c2c(OC(C)C)nn(C3CCCCC3)c2n1 [compound 405],181.2,
CC(C)Oc1nn(C2CCCCC2)c2nc(C(=O)NS(=O)(=O)N(C)C)cc(-c3ccc(CN4CCOCC4)cc3)c12 [compound 406],160.8,
COCCS(=O)(=O)NC(=O)c1cc(N2CCC(N3CCOCC3)CC2)c2c(C3CCC3)nn(-c3ccc(F)cc3)c2n1 [compound 407],125.95,
CN(C)S(=O)(=O)NC(=O)c1cc(N2CCC(CN3CCOCC3)CC2)c2c(C3CCC3)nn(-c3ccc(F)cc3)c2n1 [compound 409],272.74,
CN1CCN(Cc2cc(C(=O)NS(C)(=O)=O)nc3c2c(C2CCC2)nn3-c2ccc(F)cc2)CC1 [compound 518],,10000

# Reference: patent US20190202823A1, “N-SULFONYLATED PYRAZOLO[3,4-b]PYRIDIN-6-CARBOXAMIDES AND METHOD OF USE” (AbbVie S.à.r.l., priority 2015, published 2019)
